Reference: PubChem BioAssay AID1259407 (Chemical Carcinogenesis Research Information System (CCRIS), 2018)
Active and inactive are the calls of the source. The rule behind the calls is not given here.

Test system: CCRIS mutagenicity, Ames/micronucleus/aberration tests
Test: CCRIS mutagenicity studies
[1] = Test System: AMES SALMONELLA TYPHIMURIUM, Strain/Indicator: TA97, Metabolic Activation: NONE, Method: STANDARD PLATE
[2] = Test System: AMES SALMONELLA TYPHIMURIUM, Strain/Indicator: TA98, Metabolic Activation: NONE, Method: STANDARD PLATE
[3] = Test System: AMES SALMONELLA TYPHIMURIUM, Strain/Indicator: TA98, Metabolic Activation: RAT, LIVER, S-9, AROCLOR 1254, Method: STANDARD PLATE
[4] = Test System: AMES SALMONELLA TYPHIMURIUM, Strain/Indicator: TA100, Metabolic Activation: NONE, Method: STANDARD PLATE
[5] = Test System: AMES SALMONELLA TYPHIMURIUM, Strain/Indicator: TA1535, Metabolic Activation: NONE, Method: STANDARD PLATE
[6] = Test System: AMES SALMONELLA TYPHIMURIUM, Strain/Indicator: TA1535, Metabolic Activation: RAT, LIVER, S-9, AROCLOR 1254, Method: STANDARD PLATE
[7] = Test System: AMES SALMONELLA TYPHIMURIUM, Strain/Indicator: TA98, Metabolic Activation: NONE, Method: PREINCUBATION
[8] = Test System: AMES SALMONELLA TYPHIMURIUM, Strain/Indicator: TA100, Metabolic Activation: NONE, Method: PREINCUBATION

COc1cc(O)c2c(=O)c(O)c(-c3ccc(O)c(O)c3)oc2c1
mutagenic call [1]: inactive; negative | mutagenic call (Test System: AMES SALMONELLA TYPHIMURIUM, Strain/Indicator: TA97, Metabolic Activation: RAT, LIVER, S-9, AROCLOR 1254, Method: STANDARD PLATE): active; positive | mutagenic call [2]: inactive; negative | mutagenic call [3]: active; positive | mutagenic call [4]: inactive; negative | mutagenic call (Test System: AMES SALMONELLA TYPHIMURIUM, Strain/Indicator: TA100, Metabolic Activation: RAT, LIVER, S-9, AROCLOR 1254, Method: STANDARD PLATE): inactive; negative | mutagenic call (Test System: AMES SALMONELLA TYPHIMURIUM, Strain/Indicator: TA102, Metabolic Activation: NONE, Method: STANDARD PLATE): inactive; negative | mutagenic call (Test System: AMES SALMONELLA TYPHIMURIUM, Strain/Indicator: TA102, Metabolic Activation: RAT, LIVER, S-9, AROCLOR 1254, Method: STANDARD PLATE): inactive; negative | mutagenic call [5]: inactive; negative | mutagenic call [6]: inactive; negative | mutagenic call (Test System: AMES SALMONELLA TYPHIMURIUM, Strain/Indicator: TA1538, Metabolic Activation: NONE, Method: STANDARD PLATE): inactive; negative | mutagenic call (Test System: AMES SALMONELLA TYPHIMURIUM, Strain/Indicator: TA1538, Metabolic Activation: RAT, LIVER, S-9, AROCLOR 1254, Method: STANDARD PLATE): inactive; negative

Brc1cc(-c2cc(Br)c(Br)c(Br)c2)cc(Br)c1Br
mutagenic call (Test System: CHINESE HAMSTER V-79, Strain/Indicator: V-79 (HGPRT)/6-THIOGUANINE, Metabolic Activation: NONE): inactive; negative

CC(C)=CCl
mutagenic call (End Point: IN VITRO CHROMOSOMAL ABERRATIONS, Test System: CHO CELLS, Metabolic Activation: NONE): inactive; negative | mutagenic call (End Point: IN VITRO CHROMOSOMAL ABERRATIONS, Test System: CHO CELLS, Metabolic Activation: RAT, LIVER, S-9, AROCLOR 1254): inactive; negative | mutagenic call (Test System: AMES SALMONELLA TYPHIMURIUM, Strain/Indicator: TA98, Metabolic Activation: HAMSTER, LIVER, S-9, AROCLOR 1254 (10%), Method: PREINCUBATION): inactive; negative | mutagenic call [7]: inactive; negative | mutagenic call (Test System: AMES SALMONELLA TYPHIMURIUM, Strain/Indicator: TA98, Metabolic Activation: RAT, LIVER, S-9, AROCLOR 1254 (10%), Method: PREINCUBATION): inactive; negative | mutagenic call (Test System: AMES SALMONELLA TYPHIMURIUM, Strain/Indicator: TA100, Metabolic Activation: HAMSTER, LIVER, S-9, AROCLOR 1254 (10%), Method: PREINCUBATION): inactive; negative | mutagenic call [8]: inactive; negative | mutagenic call (Test System: AMES SALMONELLA TYPHIMURIUM, Strain/Indicator: TA100, Metabolic Activation: RAT, LIVER, S-9, AROCLOR 1254 (10%), Method: PREINCUBATION): inactive; negative | mutagenic call (Test System: AMES SALMONELLA TYPHIMURIUM, Strain/Indicator: TA102, Metabolic Activation: RAT, LIVER, S-9, PHENOBARBITAL AND 5,6-BENZOFLAVONE, Method: STANDARD PLATE): inactive; negative | mutagenic call (Test System: AMES SALMONELLA TYPHIMURIUM, Strain/Indicator: TA1535, Metabolic Activation: HAMSTER, LIVER, S-9, AROCLOR 1254 (10%), Method: PREINCUBATION): inactive; negative | mutagenic call (Test System: AMES SALMONELLA TYPHIMURIUM, Strain/Indicator: TA1535, Metabolic Activation: NONE, Method: PREINCUBATION): inactive; negative | mutagenic call (Test System: AMES SALMONELLA TYPHIMURIUM, Strain/Indicator: TA1535, Metabolic Activation: RAT, LIVER, S-9, AROCLOR 1254 (10%), Method: PREINCUBATION): inactive; negative | mutagenic call (Test System: AMES SALMONELLA TYPHIMURIUM, Strain/Indicator: TA1537, Metabolic Activation: HAMSTER, LIVER, S-9, AROCLOR 1254 (10%), Method: PREINCUBATION): inactive; negative | mutagenic call (Test System: AMES SALMONELLA TYPHIMURIUM, Strain/Indicator: TA1537, Metabolic Activation: NONE, Method: PREINCUBATION): inactive; negative | mutagenic call (Test System: AMES SALMONELLA TYPHIMURIUM, Strain/Indicator: TA1537, Metabolic Activation: RAT, LIVER, S-9, AROCLOR 1254 (10%), Method: PREINCUBATION): inactive; negative | mutagenic call (Test System: AMES SALMONELLA TYPHIMURIUM, Strain/Indicator: TA2638, Metabolic Activation: RAT, LIVER, S-9, PHENOBARBITAL AND 5,6-BENZOFLAVONE, Method: STANDARD PLATE): inactive; negative | mutagenic call (Test System: E. COLI, Strain/Indicator: WP2 (PKM101), Metabolic Activation: RAT, LIVER, S-9, PHENOBARBITAL AND 5,6-BENZOFLAVONE, Method: STANDARD PLATE): inactive; negative | mutagenic call (Test System: E. COLI, Strain/Indicator: WP2 UVRA (PKM101), Metabolic Activation: RAT, LIVER, S-9, PHENOBARBITAL AND 5,6-BENZOFLAVONE, Method: STANDARD PLATE): inactive; negative | mutagenic call (Test System: MOUSE LYMPHOMA, Strain/Indicator: L5178Y (TK+/TK-), Metabolic Activation: RAT, LIVER, S-9, AROCLOR 1254, Method: SUSPENSION/PLATE): active; positive. reevaluation of results: positive | mutagenic call (Test System: Mouse lymphoma, Strain/Indicator: L5178Y (tk+/tk-), Metabolic Activation: None, Method: Suspension/plate): inactive; negative

O=c1c(=O)c2cccc3ccc4cccc1c4c32
mutagenic call [7]: inactive; negative | mutagenic call (Test System: AMES SALMONELLA TYPHIMURIUM, Strain/Indicator: TA98, Metabolic Activation: RAT, LIVER, S-9, AROCLOR 1254, Method: PREINCUBATION): inactive; negative | mutagenic call [8]: inactive; negative | mutagenic call (Test System: AMES SALMONELLA TYPHIMURIUM, Strain/Indicator: TA100, Metabolic Activation: RAT, LIVER, S-9, AROCLOR 1254, Method: PREINCUBATION): inactive; negative

CC(=O)OCc1ccc(N=Nc2ccccc2COC(C)=O)cc1
mutagenic call [8]: active; positive | mutagenic call (Test System: AMES SALMONELLA TYPHIMURIUM, Strain/Indicator: TA100, Metabolic Activation: RAT, LIVER, S-9, POLYCHLORINATED BIPHENYLS, Method: PREINCUBATION): inactive; negative

COc1ccc(OC)c(N=Nc2c(O)ccc3ccccc23)c1
mutagenic call (Test System: AMES SALMONELLA TYPHIMURIUM, Strain/Indicator: TA98, Metabolic Activation: HAMSTER, LIVER, S-9, AROCLOR 1254 (30%), Method: PREINCUBATION): active; positive | mutagenic call [7]: inactive; negative | mutagenic call (Test System: AMES SALMONELLA TYPHIMURIUM, Strain/Indicator: TA100, Metabolic Activation: HAMSTER, LIVER, S-9, AROCLOR 1254 (30%), Method: PREINCUBATION): active; positive | mutagenic call [8]: inactive; negative | mutagenic call (Test System: AMES SALMONELLA TYPHIMURIUM, Strain/Indicator: TA100, Metabolic Activation: RAT, LIVER, S-9, AROCLOR 1254 (30%), Method: PREINCUBATION): active; positive

O[C@@H]1C=CC=C[C@H]1O
mutagenic call [1]: inactive; negative | mutagenic call [2]: inactive; negative | mutagenic call [3]: inactive; negative | mutagenic call [4]: inactive; negative | mutagenic call [5]: inactive; negative | mutagenic call [6]: active; positive | mutagenic call (Test System: CHINESE HAMSTER V-79, Strain/Indicator: V-79/6-THIOGUANINE, Metabolic Activation: NONE): inactive; negative

CC(=O)Nc1ccc2ccc3cccc4ccc1c2c34
mutagenic call (Test System: AMES SALMONELLA TYPHIMURIUM, Strain/Indicator: TA98(1,8-DNP6), Metabolic Activation: NONE, Method: STANDARD PLATE): inactive; negative | mutagenic call (Test System: AMES SALMONELLA TYPHIMURIUM, Strain/Indicator: TA98(1,8-DNP6), Metabolic Activation: RAT, LIVER, S-9, AROCLOR 1254, Method: STANDARD PLATE): inactive; negative | mutagenic call (Test System: AMES SALMONELLA TYPHIMURIUM, Strain/Indicator: TA98(NR), Metabolic Activation: NONE, Method: STANDARD PLATE): inactive; negative | mutagenic call (Test System: AMES SALMONELLA TYPHIMURIUM, Strain/Indicator: TA98(NR), Metabolic Activation: RAT, LIVER, S-9, AROCLOR 1254, Method: STANDARD PLATE): active; positive | mutagenic call [2]: inactive; negative | mutagenic call [3]: active; positive
